Results on 3 compounds are retold here after US10875799B2, “System and method for generation of point of use reactive oxygen species” (Clean Chemistry, Inc., priority 2012, dated 2020).

Data set [1] can be described thus: Methylene blue (MB) dye oxidation / color removal test. The settings on record: hydrogen peroxide alone, after several days.
For data set [2] the following is noted: cited from earlier work.

For the compound `OO` [hydrogen peroxide], the “effect on methylene blue” value in data set [1] is “no visible effect”. In addition, the pKa (as a rule, the negative logarithm of the acid dissociation constant) in data set [2] is given as 11.6. Take `CC(=O)OO` [peroxyacetic acid]: the pKa in data set [2] is 8.3. `[O]O` [superoxide]: the pKa in data set [2] is recorded as 4.8.
